Data set [1] relates to human G-CSF (G21) promoter. In words: High-throughput luciferase reporter assay, G-CSF promoter (Screen III). The settings on record: for FOLD INDUCTION RELATIVE TO SOLVENT CONTROL, GCSF: Screen III activators.
In data set [2] the test system is human growth hormone (532) promoter. In words: High-throughput luciferase reporter assay, human Growth Hormone promoter (Screen III). The format is cell-based. The settings on record: 532 cells, 6 hours; for FOLD INDUCTION RELATIVE TO SOLVENT CONTROL, hGH: Screen III activators; for FOLD INHIBITION RELATIVE TO SOLVENT CONTROL, hGH: Screen III inhibitors. For orientation: Reporter assays use an easily measured gene product as a stand-in for the process of interest.

The subject of another data set is MMTV (M10) promoter. In words: High-throughput luciferase reporter assay, MMTV promoter (Screen III). The format is cell-based, mouse. The settings on record: M10 cells, 6 hours; for FOLD INDUCTION RELATIVE TO SOLVENT CONTROL, MMTV: Screen III activators; for FOLD INHIBITION RELATIVE TO SOLVENT CONTROL, MMTV: Screen III inhibitors. The protocol: pMluci and pSV2Neo, an antibiotic resistance plasmid (112), were co-transfected into NIH/3T3 mouse fibroblast cells using the calcium phosphate precipitation method (103) with a commercially available kit (Pharmacia, Piscataway N.J.). Two days later, cells were transferred to media containing 0.4 mg/ml G418 and were grown for an additional 10-14 days. G418-resistant clones were isolated by standard methods. Once sufficient cell numbers were obtained, clones were analyzed based on several criteria: constitutive luciferase production, induction of luciferase expression by dexamethasone (1 μm, Sigma, St. Louis, Mo.), satisfactory attachment to microtiter plates used in the high-throughput screen and acceptable standard deviation in multiple luciferase expression assays (see below for assay protocol). This analysis was carried out using the luciferase assay conditions described above. Of the clones which satisfied the above criteria for the high throuphput screen, one clone, M10, was selected for use.

Setting [3] is: Screen III inhibitors, G21 cells, 6 hours.

The results in this text go back to US6203976A, “Methods of preparing compositions comprising chemicals capable of transcriptional modulation” (OSI Pharmaceuticals, Inc., priority 1994, dated 2001).

Molecules are shown by their SMILES. Where two headings read alike, the source gives them in different places. Bounds are passed on as bounds.

Consider `CC(C=O)=CC=CC(C)=CC=CC=C(C)C=CC=C(C)C=CC1=C(C)CCCC1(C)C` [compound 519], for which the “FOLD INDUCTION RELATIVE TO SOLVENT CONTROL, GCSF” value in data set [1] (G21 cells, 6 hours) was determined as 1.15 fold. Also, in data set [2], the “FOLD INDUCTION RELATIVE TO SOLVENT CONTROL, hGH” value is given as 0.68 fold. Moreover, the “FOLD INDUCTION RELATIVE TO SOLVENT CONTROL, MMTV” value in the data set on MMTV (M10) promoter is reported as 2.76 fold.
Take `O=P(O)(O)Oc1c[nH]c2ccc(Br)c(Cl)c12` [compound 541]: the “FOLD INHIBITION RELATIVE TO SOLVENT CONTROL, GCSF” value in data set [1] (setting [3]) is on record as 0.90 fold. The “FOLD INHIBITION RELATIVE TO SOLVENT CONTROL, hGH” value in data set [2] was 6.25 fold. The “FOLD INHIBITION RELATIVE TO SOLVENT CONTROL, MMTV” value with MMTV (M10) promoter worked out at 0.86 fold.
For the molecule `Nc1nc(=O)n([C@H]2C[C@H](O)[C@@H](CO)O2)cc1Br` [compound 542], in data set [1] (G21 cells, 6 hours), the “FOLD INDUCTION RELATIVE TO SOLVENT CONTROL, GCSF” value is reported as 6.28 fold. Besides, in data set [2], the “FOLD INDUCTION RELATIVE TO SOLVENT CONTROL, hGH” value was 1.08 fold. Also, in the data set with MMTV (M10) promoter, the “FOLD INDUCTION RELATIVE TO SOLVENT CONTROL, MMTV” value came to 1.26 fold.
On the same counts, the results for `O=c1[nH]c(=O)n([C@H]2C[C@H](O)[C@@H](CO)O2)cc1Br` [compound 543] are 7.17 fold, 0.72 fold and 0.98 fold.
On the same counts, the results for `CON(C)C(=O)Nc1ccc(Cl)cc1` [compound 552] are 0.81 fold, 5.31 fold and 0.86 fold.
On to `CC1=CC(=C(c2cc(C)c(O)c(C(=O)O)c2)c2c(Cl)ccc(S(=O)(=O)O)c2Cl)C=C(C(=O)O)C1=O` [compound 556], for which the “FOLD INHIBITION RELATIVE TO SOLVENT CONTROL, GCSF” value in data set [1] (setting [3]) is recorded as 0.73 fold. Moreover, in data set [2], the “FOLD INHIBITION RELATIVE TO SOLVENT CONTROL, hGH” value is reported as 33.33 fold. The “FOLD INHIBITION RELATIVE TO SOLVENT CONTROL, MMTV” value in the data set on MMTV (M10) promoter is given as 0.87 fold.
As to `CC(=O)NCCCC[C@H](NC(C)=O)C(=O)O` [compound 577], the “FOLD INHIBITION RELATIVE TO SOLVENT CONTROL, GCSF” value in data set [1] (setting [3]) was determined as 0.64 fold. Moreover, in data set [2], the “FOLD INHIBITION RELATIVE TO SOLVENT CONTROL, hGH” value is on record as 4.00 fold. Also, the “FOLD INHIBITION RELATIVE TO SOLVENT CONTROL, MMTV” value in the data set on MMTV (M10) promoter worked out at 0.68 fold.
Consider `O=C(O[C@H](C(=O)O)[C@H](OC(=O)c1ccccc1)C(=O)O)c1ccccc1` [compound 578], for which the “FOLD INHIBITION RELATIVE TO SOLVENT CONTROL, GCSF” value in data set [1] (setting [3]) stood at 0.65 fold. In addition, the “FOLD INHIBITION RELATIVE TO SOLVENT CONTROL, hGH” value in data set [2] amounted to 4.00 fold. The “FOLD INHIBITION RELATIVE TO SOLVENT CONTROL, MMTV” value in the data set on MMTV (M10) promoter amounted to 0.91 fold.
`COc1ccc(CC(=O)O)cc1OC` [compound 629]: the “FOLD INDUCTION RELATIVE TO SOLVENT CONTROL, GCSF” value in data set [1] (G21 cells, 6 hours) was found to be 0.85 fold. In addition, in data set [2], the “FOLD INDUCTION RELATIVE TO SOLVENT CONTROL, hGH” value is 1.05 fold. The “FOLD INDUCTION RELATIVE TO SOLVENT CONTROL, MMTV” value with MMTV (M10) promoter turned out to be 2.48 fold.
For the molecule `O=C(O)CC1NC(=O)NC1=O` (stereo not drawn) [compound 630], the “FOLD INHIBITION RELATIVE TO SOLVENT CONTROL, GCSF” value in data set [1] (setting [3]) stood at 0.70 fold. In addition, the “FOLD INHIBITION RELATIVE TO SOLVENT CONTROL, hGH” value in data set [2] worked out at 3.57 fold. Further, the “FOLD INHIBITION RELATIVE TO SOLVENT CONTROL, MMTV” value in the data set with MMTV (M10) promoter is given as 0.74 fold.
Regarding `O=C(O)c1[nH]c(=O)[nH]c(=O)c1I` [compound 633], in data set [1] (G21 cells, 6 hours), the “FOLD INDUCTION RELATIVE TO SOLVENT CONTROL, GCSF” value amounted to 1.02 fold. Also, the “FOLD INDUCTION RELATIVE TO SOLVENT CONTROL, hGH” value in data set [2] was determined as 0.86 fold. In the data set on MMTV (M10) promoter, the “FOLD INDUCTION RELATIVE TO SOLVENT CONTROL, MMTV” value is listed as 2.46 fold.
Consider `Nc1c(O)c(S(=O)(=O)O)c(O)c2c1C(=O)c1ccccc1C2=O` [compound 640], for which the “FOLD INHIBITION RELATIVE TO SOLVENT CONTROL, GCSF” value in data set [1] (setting [3]) was 0.64 fold. Also, the “FOLD INHIBITION RELATIVE TO SOLVENT CONTROL, hGH” value in data set [2] was 5.00 fold. Moreover, the “FOLD INHIBITION RELATIVE TO SOLVENT CONTROL, MMTV” value with MMTV (M10) promoter is listed as 0.59 fold.
Turning to `O=C(c1ccc(O)c(O)c1)c1c(O)cc(O)cc1O` [compound 660], the “FOLD INHIBITION RELATIVE TO SOLVENT CONTROL, GCSF” value in data set [1] (setting [3]) was determined as 10.0 fold. Further, the “FOLD INHIBITION RELATIVE TO SOLVENT CONTROL, hGH” value in data set [2] is 0.34 fold. For the same molecule, in the data set on MMTV (M10) promoter, the “FOLD INHIBITION RELATIVE TO SOLVENT CONTROL, MMTV” value is reported as 1.04 fold.
For the molecule `CN(C)c1ccc(C(=C2C=CC(=[N+](C)C)C=C2)c2ccc([N+](C)(C)C)cc2)cc1` [compound 670], in data set [1] (G21 cells, 6 hours), the “FOLD INDUCTION RELATIVE TO SOLVENT CONTROL, GCSF” value is above 3 fold. Besides, the “FOLD INDUCTION RELATIVE TO SOLVENT CONTROL, hGH” value in data set [2] turned out to be 0.52 fold. Further, in the data set with MMTV (M10) promoter, the “FOLD INDUCTION RELATIVE TO SOLVENT CONTROL, MMTV” value is on record as 0.79 fold.
Regarding `C1CCNCC1` [compound 759], the “FOLD INHIBITION RELATIVE TO SOLVENT CONTROL, GCSF” value in data set [1] came to 0.64. Besides, the “FOLD INHIBITION RELATIVE TO SOLVENT CONTROL, hGH” value in data set [2] is 5.88 fold. Also, in the data set on MMTV (M10) promoter, the “FOLD INHIBITION RELATIVE TO SOLVENT CONTROL, MMTV” value was determined as 0.95 fold.
Regarding `CC(=O)OCC(=O)[C@@]1(O)CC[C@H]2[C@@H]3CCC4=CC(=O)C=C[C@]4(C)[C@H]3[C@@H](O)C[C@@]21C` [compound 765], the “FOLD INDUCTION RELATIVE TO SOLVENT CONTROL, GCSF” value in data set [1] (G21 cells, 6 hours) was 0.96 fold. Also, in data set [2], the “FOLD INDUCTION RELATIVE TO SOLVENT CONTROL, hGH” value stood at 1.30 fold. Besides, in the data set with MMTV (M10) promoter, the “FOLD INDUCTION RELATIVE TO SOLVENT CONTROL, MMTV” value is listed as 2.66 fold.
For `CCOc1ccc2nc3cc(N)ccc3c(N)c2c1` [compound 790], in data set [1] (G21 cells, 6 hours), the “FOLD INDUCTION RELATIVE TO SOLVENT CONTROL, GCSF” value amounted to 0.01 fold. In data set [2], the “FOLD INDUCTION RELATIVE TO SOLVENT CONTROL, hGH” value is recorded as 5.94 fold. Moreover, in the data set with MMTV (M10) promoter, the “FOLD INDUCTION RELATIVE TO SOLVENT CONTROL, MMTV” value turned out to be 0.58 fold.
